This passage reports TGI and GI50 results from PubChem BioAssay (NCI).

What all share (experiment): inhibition of tumour cell growth, NCI panel, 48 h
Test [1] has as its system NCI-H226 lung.
The subject of test [2] is SK-MEL-2 melanoma.
In test [3] the test system is M14 melanoma.
The subject of test [4] is NCI-H23 lung.
The test system of test [5] is BT-549 breast.
Test [6] has as its system RPMI-8226 leukemia.
Test [7] concerns OVCAR-3 ovarian.
Test [8] concerns MALME-3M melanoma.
For test [9], the system named is U251 CNS.
For test [10], the system named is SF-268 CNS.

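Values below derive from 48-hour exposures of cells grown in 96-well plates, with endpoints linearly interpolated between the two concentrations bracketing the appropriate inhibition level. Abbreviation: GI50, concentration required for 50% inhibition of growth. TGI denotes the concentration required for complete inhibition of growth.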

`COc1cc(I)c2c3c1OC1C34CCN(C)C(C2)C4=CC(I)C1(OC)OC` (stereo not given): the TGI in test [1] was 70.5 µM; in test [2] it was 32.9 µM; in test [3], more than 100 µM; in test [4], 54.7 µM; in test [5], 48.4 µM; in test [6] it was 49.7 µM. For the same compound, the TGI in test [7] is 59 µM; in test [8] it was 47.1 µM; in test [9] it was 33.9 µM; in test [10], 61.5 µM.
`N#Cc1cc2c(cc1Cl)Sc1nccn1S2(=O)=O`: the TGI was determined as 18 µM in test [1]; 12.8 µM in test [2]; 4.02 µM in test [3]; 3.35 µM in test [4]; 13 µM in test [5]; 20.8 µM in [6]. In addition, the TGI in test [7] turned out to be 2.13 µM; in test [8], 22.2 µM; in test [9], 3.21 µM; in test [10], 13 µM.
Turning to `CCOc1cc(-c2nc3ccccn3c2/N=C/c2cc(Br)ccc2O)ccc1O`, the TGI in [1], in [2], in [3], in test [4], in test [5] and in test [6] was more than 100 µM throughout. Further, the TGI in [7] is 34 µM; in test [8], more than 100 µM; in test [9], 40.2 µM; in [10], more than 100 µM.
Take `N#Cc1c(-c2ccc(F)cc2)nc(N/N=C/c2c[nH]c3ccccc23)nc1N1CCOCC1`: the GI50 in test [1] was 24.2 µM; in [2] it was 3.5 µM; in [3] it was 2.1 µM; in [4], 21.2 µM; in test [5], 5.43 µM; in [6], 3.35 µM. Besides, the GI50 in test [7] was 11.5 µM; in test [8], 2.75 µM; in test [9], 2.16 µM; in test [10], 17 µM. In addition, the TGI was 88 µM in [1]; 17.7 µM in test [2]; 4.87 µM in test [3]; 92.7 µM in test [4]; 30.9 µM in [5]; more than 100 µM in test [6]. The TGI was 35 µM in test [7], 4.76 µM in [8], 17.7 µM in test [9] and more than 100 µM in test [10].
Regarding `Brc1ccc2c(-c3csc(-c4c[nH]c5cc(Br)ccc45)n3)c[nH]c2c1`, the TGI in test [1] was 99.7 µM; in [2], more than 100 µM; in test [3], more than 56.5 µM; in [4], 53.2 µM; in test [5] it was more than 100 µM; in test [6], more than 100 µM. Besides, the TGI in [7] was more than 100 µM; in test [8] it was more than 100 µM; in [9], 32.1 µM; in test [10], more than 100 µM.
Regarding `CC(=O)OC/C=C(/C=C/CNC1CCCCC1)OC(C)=O`, the TGI came out at 98.5 µM in [1]; 43.8 µM in [2]; 21.2 µM in [3]; 29.9 µM in [4]; 31.3 µM in test [5]; 25.5 µM in test [6]. Moreover, the TGI was 37.7 µM in [7], 32.9 µM in test [8], 32.9 µM in [9] and 35.5 µM in [10].
For the compound `CC1(C(=O)O)CCCC1C(=O)O` (stereo not given), the TGI in [1], in [2], in test [3], in test [4], in test [5] and in test [6] was more than 100 µM each time. Besides, the TGI in test [7], in [8], in test [9] and in test [10] was more than 100 µM in each case.
Take `Brc1cc2nn(-c3ccccc3)nc2c2nonc12`: the TGI in test [1], in [2], in test [3], in test [4], in [5] and in [6] was more than 100 µM in each case. Also, the TGI in [7], in [8], in test [9] and in test [10] was more than 100 µM throughout.
Take `COCc1nc2c(OC)cc(-c3nc4ccc(N5CCN(C)CC5)cc4[nH]3)c(OC)c2[nH]1`: the TGI in test [1] was more than 100 µM; in test [2], 76.3 µM; in [3], 31.9 µM; in test [4], more than 100 µM; in [5], more than 100 µM; in test [6] it was more than 100 µM. The TGI in test [7] is 77.5 µM; in test [8], 31.6 µM; in [9] it was more than 100 µM; in test [10], more than 100 µM.
Take `CC(C)(C)c1cc(/C=C(\C#N)C(=O)NCCO)cc(C(C)(C)C)c1O`: the TGI in test [1] stood at 40.7 µM; in test [2] it was 37.4 µM; in test [3], 31.8 µM; in test [4] it was 89.7 µM; in test [5] it was 71.1 µM; in test [6], 35.6 µM. The TGI was 33.5 µM in test [7], 61.9 µM in test [8], 39.9 µM in [9] and more than 100 µM in test [10].
